Earlier results as cited in patent US11406658B2, “Composition comprising glycyrrhizin and cosmetic and pharmaceutical uses thereof” (ATG 20 S.R.L., priority 2018, dated 2022).

Columns and labels:
[1] = background art
[2] = oral administration; background art

Row | SMILES | solubility [1] | bioavailability [2]
1 | CC1(C)[C@@H](O[C@H]2O[C@H](C(=O)O)[C@@H](O)[C@H](O)[C@H]2O[C@@H]2O[C@H](C(=O)O)[C@@H](O)[C@H](O)[C@H]2O)CC[C@]2(C)[C@H]3C(=O)C=C4[C@@H]5C[C@@](C)(C(=O)O)CC[C@]5(C)CC[C@@]4(C)[C@]3(C)CC[C@@H]12.N [(mono)ammonium salt, (mono) ammonium glycyrrhizate] | soluble in diluted acidic or basic solutions | 
2 | CC1(C)[C@@H](O[C@H]2OC(C(=O)O)[C@@H](O)C(O)C2O[C@H]2OC(C(=O)O)[C@@H](O)C(O)C2O)CC[C@]2(C)[C@H]3C(=O)C=C4[C@@H]5C[C@@](C)(C(=O)O)CC[C@]5(C)CC[C@@]4(C)[C@]3(C)CC[C@@H]12 (stereo partly shown) [Glycyrrhizin] | not particularly water-soluble | extremely low
3 | CC1(C)[C@@H](O[C@H]2OC(C(=O)[O-])[C@@H](O)C(O)C2O[C@H]2OC(C(=O)[O-])[C@@H](O)C(O)C2O)CC[C@]2(C)[C@H]3C(=O)C=C4[C@@H]5C[C@@](C)(C(=O)O)CC[C@]5(C)CC[C@@]4(C)[C@]3(C)CC[C@@H]12.[K+].[K+] (stereo partly shown) [potassium salt, dipotassium glycyrrhizate] | water-soluble | 
